Values joined by “and” are separate entries in the source; they are usually repeats but may differ in a detail not shown here. Identical values can stand only once. Counter-ions that a name gives are not always drawn. Like-named read-outs stand apart in the source and are kept apart here.
What was measured:
SUDHL10 [1] = assay: Anti-proliferative effect (CellTiter-Glo, 72 h), SUDHL10; assay type: cell-based; details: SUDHL10 cells, antiproliferation, 72 h incubation, median, read-out: Antiproli SUDHL10 [M] (median)
How it was run: (§1)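 Cells were treated with compounds for 72 h at 37 °C in a humidified incubator, and viability was measured by CellTiter-Glo luminescence. A parallel day 0 plate, read the same way, gave the time zero baseline.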

MCL-1 = MCL-1 (Homo sapiens, UniProt Q07820); assay: Protein-protein interaction assay MCL-1/Noxa BH3 peptide (MCL-1 assay), TR-FRET; assay type: binding; details: MBP-MCL-1 / Noxa BH3-derived peptide, median
How it was run: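 TR-FRET, 665/622 nm emission ratio (excitation 330–350 nm), measured MCL-1/Noxa complex formation. 1 nM MBP-MCL-1, 50 mM Tris/HCl pH 7, 0.1% BGG, 2 mM DTT. Incubation 1 h at 22 °C, then overnight at 4 °C. IC50 by 4-parameter regression, normalized to DMSO (0%) and no-MCL-1 (100%) controls.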

MV-4-11 = assay: Anti-proliferative effect (CellTiter-Glo, 72 h), MV-4-11; assay type: cell-based; details: Homo sapiens, MV4-11, 72 h, MV-4-11 cells, median, read-out: IC50 antiproliferation assay MV-4-11 [M] (median)
How it was run: as §1

SUDHL5 [2] = assay: Induction of caspase-3/7 activity (Caspase-Glo 3/7), SUDHL5; assay type: cell-based; details: caspase-3/7 induction, SUDHL5 cells, 3 h treatment; median
How it was run: (§2)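 DLBCL cells treated with compounds for 3 h at 37 °C, then caspase-3/7 activity read by Caspase-Glo 3/7 luminescence. Medium-only background subtracted; EC50 fitted with C0 fixed at 1 and top set to the reference compound's maximal induction.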

SUDHL10 [3] = assay: Induction of caspase-3/7 activity (Caspase-Glo 3/7), SUDHL10; assay type: cell-based; details: caspase-3/7 induction, SUDHL10 cells, 3 h treatment; median
How it was run: as §2

SUDHL5 [4] = assay: Induction of cytotoxicity (CellTiter-Glo, 5 h), SUDHL5; details: read-out: Cytotox SUDHL5 [M] (median); SUDHL5 cells, cytotoxicity induction, CellTiter-Glo, 5 h incubation, median
SUDHL10 [5] = assay: Induction of cytotoxicity (CellTiter-Glo, 5 h), SUDHL10; details: read-out: Cytotox SUDHL10 [M] (median); SUDHL10 cells, cytotoxicity induction, CellTiter-Glo, 5 h incubation, median
SUDHL5 [6] = assay: Anti-proliferative effect (CellTiter-Glo, 72 h), SUDHL5; assay type: cell-based; details: SUDHL5 cells, antiproliferation, 72 h incubation, median, read-out: Antiproli SUDHL5 [M] (median)
How it was run: as §1

A2780 = assay: Anti-proliferative effect (CellTiter-Glo, 72 h), A2780; assay type: cell-based; details: A2780 cells, median, read-out: IC50 antiproliferation assay A2780 [M] (median)
How it was run: as §1

Sequence of MCL-1 (Q07820 whole entry): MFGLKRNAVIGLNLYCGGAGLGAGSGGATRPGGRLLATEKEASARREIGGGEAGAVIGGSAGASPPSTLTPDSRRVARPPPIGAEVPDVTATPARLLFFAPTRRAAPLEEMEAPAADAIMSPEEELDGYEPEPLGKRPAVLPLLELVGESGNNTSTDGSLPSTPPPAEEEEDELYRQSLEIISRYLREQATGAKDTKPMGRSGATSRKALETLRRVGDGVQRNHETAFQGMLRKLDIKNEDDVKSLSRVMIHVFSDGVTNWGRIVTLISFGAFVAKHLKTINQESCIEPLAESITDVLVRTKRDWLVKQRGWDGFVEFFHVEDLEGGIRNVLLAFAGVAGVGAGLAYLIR

| SMILES | IC50 (SUDHL10 [1]) [M] | IC50 (MCL-1) [µM] | IC50 (MV-4-11) [M] | EC50 (SUDHL5 [2]) [µM] | EC50 (SUDHL10 [3]) [µM] | IC50 (SUDHL5 [4]) [M] | IC50 (SUDHL10 [5]) [M] | IC50 (SUDHL5 [6]) [M] | IC50 (A2780) | IC50 (A2780; Homo sapiens, A2780, 72 h) [M] | IC50 (SUDHL10 [1]; Homo sapiens, SU-DHL10, 72 h) [M] |
| --- | --- | --- | --- | --- | --- | --- | --- | --- | --- | --- | --- |
| CCc1c2c(nn1C)CN(C)CCCn1c(C(=O)O)c(CCCOc3cccc4ccccc34)c3cccc-2c31 (single isomer, unassigned; enantiomer 2) [Example 143, 11-ethyl-7,10-dimethyl-1-[3-(1-naphthyloxy)propyl]-4,5,6,7,8,10-hexahydropyrazolo[3′,4′:7,8][1,5]diazecino[9,10,1-hi]indole-2-carboxylic acid-N-ethylethanamine Salt (Enantiomer 2)] | 2.02e-05 | 0.0308 | 1.2e-05 | 25 | > 33 | 1.36e-05 | 2.69e-05 | 1.44e-05 | 1.21e-05 M | – | – |
| Cc1nn(C)c2c1-c1cccc3c(CCCOc4cccc5c4CCCC5)c(C(=O)O)n(c13)CCCCOC2 (single isomer, unassigned; enantiomer 1) [Example 007, 1,3-dimethyl-7-[3-(5,6,7,8-tetrahydronaphthalen-1-yloxy)propyl]-1,10,11,12,13,15-hexahydropyrazolo[4′,3′:9,10][1,6]oxazacycloundecino[8,7,6-hi]indole-8-carboxylic acid-N-ethylethanamine Salt (Enantiomer 1)] | 3.1e-06 | 0.000987 | 8.03e-06 | 2.85 | 12 | 3.54e-06 | 6e-06 | 5.16e-06 | 3.25e-05 M | > 3.3e-05 | – |
| Cc1nn(CCN2CCOCC2)c2c1-c1cccc3c(CCCOc4cccc5ccccc45)c(C(=O)O)n(c13)CCCCOC2 (single isomer, unassigned; enantiomer 1) [Example 096, 3-methyl-1-[2-(morpholin-4-yl)ethyl]-7-[3-(naphthalen-1-yloxy)propyl]-1,10,11,1213,15-hexahydropyrazolo[4′,3′:9,10][1,6]oxazacycloundecino[8,7,6-hi]indole-8-carboxylic acid-N-ethylethanamine Salt (Enantiomer 1)] | – | 0.00136 | 1.45e-06 | 1.34 | 3.97 | 1.09e-06 | 3.7e-06 | 2.32e-06 | – | 2.79e-05 | 7.13e-06 |
| CCCc1nn(C)c2c1-c1c(C)ccc3c(CCCOc4cccc5ccccc45)c(C(=O)O)n(c13)CCCN(C)C2 (single isomer, unassigned; enantiomer 1) [Example 196, 7,9,12-trimethyl-1-[3-(naphthalen-1-yloxy)propyl]-11-propyl-4,5,6,7,8,9-hexahydropyrazolo[3′,4′:7,8][1,5]diazecino[9,10,1-hi]indole-2-carboxylic acid-N-ethylethanamine Salt (Enantiomer 1)] | 2.19e-06 | 0.00161 | 4.83e-06 | 1.39 | 2.85 | 1.36e-06 | 2.92e-06 | 1.45e-06 | – | 1.53e-05 | – |
| Cn1nc(COc2cncnc2)c2c1COCCCCn1c(C(=O)O)c(CCCOc3cccc4ccccc34)c3cccc-2c31 (single isomer, unassigned) [Example 212, 1-methyl-7-[3-(naphthalen-1-yloxy)propyl]-3-[(pyrimidin-5-yloxy)methyl]-1,10,11,12,13,15-hexahydropyrazolo[4′,3′:9,10][1,6]oxazacycloundecino[8,7,6-hi]indole-8-carboxylic Acid] | 3.63e-06 | 0.00637 | 5e-06 | 7.34 | 19.9 | 6.68e-06 | 2.02e-05 | 5.11e-06 | 2.15e-05 M and > 3.3e-05 M | – | – |

Source: US10981932B2, “Macrocyclic indole derivatives” (Bayer Aktiengesellschaft, priority 2016, dated 2021)
